Source: PubChem BioAssay AID1963868 (Molecular Pharmacology Branch, DTP, NCI, 2024)
Several values for one entry are separate records, joined by “and”; a condition that tells them apart may be missing. Identical values can stand only once.

System: KRAS PDC tumor spheroids (HUVEC+MSC), viability
Assay: Anticancer human tumor 254851-301-R-J1-PDC patient-derived colon carcinoma cell line growth inhibition [KRAS2]
Conditions: for viability, T/C: stronger effect = lower value
Text: Multicellular complex tumor spheroid response to RAS pathway inhibitors in combination with a targeted agents in patient-derived cell lines with oncogenic KRAS variants from multiple cancer types
A high-throughput screen of multi-cell type tumor spheroids was designed to identify active combinations of targeted small molecules and KRAS pathway inhibitors. Complex spheroids include a stromal component modeled by human endothelial cells (HUVEC) and fibroblasts modeled by human mesenchymal stem cells (MSCs). The concentration ranges selected for each drug and investigational agent were based upon clinically achievable concentrations if the clinical Cmax of the agent was known.
Compounds. The drugs and investigational agents: BI-3406 (NSC825286), BAY-293 (NSC824723), batoprotafib (TNO155; NSC825523), sotorasib (AMG 510; NSC818433), MRTX1257 (NSC819558), elimusertib (BAY 1895344; NSC800525), molibresib (GSK525762; NSC774829), temuterkib (LY3214996; NSC803410), venetoclax (NSC766270), alisertib (NSC759677), olaparib (NSC753686), talazoparib (NSC767125), erdafitinib (NSC781556), ipatasertib (NSC767898), cabozantinib (NSC761068), nintedanib (NSC756659), abemaciclib (NSC768073), docetaxel (NSC628503), trametinib (NSC758246), and sapanisertib (NSC764658) were obtained from the National Cancer Institute (NCI) Developmental Therapeutics Program Chemical Repository. The FDA-approved anticancer drug set is available from the Developmental Therapeutics Program. […] The stock solutions were prepared in dimethyl sulfoxide (DMSO, Sigma-Aldrich, St. Louis, MO, cat. D2650) at 800-fold the tested concentration and stored at -70 degrees C prior to their use. All drugs and investigational agents were tested over a range starting from a high concentration at or near the clinical Cmax and decreasing in half-log increments. If the clinical Cmax for an agent had not been determined, the highest concentration tested was 10 microM.
Cell Culture. All cells were maintained in an incubator at 37 degrees C and 5% CO2 with 95% humidity. The PDC lines were cultured according to standard operating procedures established by the NCI PDMR (https://pdmr.cancer.gov/sops/default.htm). Briefly, all PDCs were thawed and cultured in Matrigel-coated flasks prepared with a working solution of 1X Ham's F-12 nutrient mix, without supplementation (Invitrogen, Waltham, MA, cat. 11765054), 100 U/mL penicillin-streptomycin (Invitrogen, cat. 15140122), and 2.5% Matrigel (Corning Inc., Corning, NY, cat. 354248) for the first three passages. All PDCs were cultured in complete DMEM/F-12 media containing advanced DMEM/F-12 (Invitrogen, cat. 12634028), 4.9% defined fetal bovine serum, heat inactivated (HyClone Laboratories Inc., Logan, UT, cat. SH30070.03HI), 389 ng/mL hydrocortisone (Sigma-Aldrich, cat. H4001), 9.7 ng/mL human EGF recombinant protein (Invitrogen, cat. PHG0313), 23.4 microg/mL adenine (Sigma-Aldrich, cat. A2786), 97.3 U/mL penicillin-streptomycin (Invitrogen, cat. 15140122), 1.9 mM L-glutamine (Invitrogen, cat. 25030081), and 9.7 microM Y-27632 dihydrochloride (Tocris Bioscience, Bristol, United Kingdom, cat. 1254). The PDCs were cultured in complete DMEM/F12 media without 9.7 microM Y-27632 dihydrochloride for at least two passages prior to the screen. The established cell line HOP-62 was cultured in RPMI 1640 medium, HEPES (Invitrogen, cat. 22400105) with 10% defined fetal bovine serum (HyClone Laboratories Inc., cat. SH30070.03) and 2 mM L-glutamine (Invitrogen, cat. 25030081). The pooled donor HUVEC were cultured in endothelial cell growth medium 2 (PromoCell, Heidelberg, Germany, cat. C-22011) and the hMSC were cultured in mesenchymal stem cell growth medium 2 (PromoCell, cat. C-28009). For all experiments, HUVEC and hMSC were used at passages </=5, while the malignant cell lines were used at passages </=15. […]

[1] = curve of first compound, second compound 0.0316 µM
[2] = curve of first compound, second compound 0.1 µM
[3] = curve of first compound, second compound 0.316 µM
[4] = curve of first compound, second compound 1 µM
[5] = curve of first compound, second compound 3.16 µM
[6] = second compound 0.0316 µM, first compound 0.000316 µM
[7] = second compound 0.0316 µM, first compound 0.001 µM
[8] = second compound 0.0316 µM, first compound 0.00316 µM
[9] = second compound 0.0316 µM, first compound 0.01 µM
[10] = second compound 0.0316 µM, first compound 0.0316 µM
[11] = second compound 0.0316 µM, first compound 0.1 µM
[12] = second compound 0.1 µM, first compound 0.000316 µM
[13] = second compound 0.1 µM, first compound 0.001 µM
[14] = second compound 0.1 µM, first compound 0.00316 µM
[15] = second compound 0.1 µM, first compound 0.01 µM
[16] = second compound 0.1 µM, first compound 0.0316 µM
[17] = second compound 0.1 µM, first compound 0.1 µM
[18] = second compound 0.316 µM, first compound 0.000316 µM
[19] = second compound 0.316 µM, first compound 0.001 µM
[20] = second compound 0.316 µM, first compound 0.00316 µM
[21] = second compound 0.316 µM, first compound 0.01 µM
[22] = second compound 0.316 µM, first compound 0.0316 µM
[23] = second compound 0.316 µM, first compound 0.1 µM
[24] = second compound 1 µM, first compound 0.000316 µM
[25] = second compound 1 µM, first compound 0.001 µM
[26] = second compound 1 µM, first compound 0.00316 µM
[27] = second compound 1 µM, first compound 0.01 µM
[28] = second compound 1 µM, first compound 0.0316 µM
[29] = second compound 1 µM, first compound 0.1 µM
[30] = second compound 3.16 µM, first compound 0.000316 µM
[31] = second compound 3.16 µM, first compound 0.001 µM
[32] = second compound 3.16 µM, first compound 0.00316 µM
[33] = second compound 3.16 µM, first compound 0.01 µM
[34] = second compound 3.16 µM, first compound 0.0316 µM
[35] = second compound 3.16 µM, first compound 0.1 µM
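Also: spheroids exposed to compounds for seven days before readout.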
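For viability, T/C in this document: 100% = DMSO vehicle control luminescence of the spheroids.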

Compound | IC50 [1] [nM] | IC50 [2] [nM] | IC50 [3] [nM] | IC50 [4] [nM] | IC50 [5] [nM] | viability, T/C [6] [%] | viability, T/C [7] [%] | viability, T/C [8] [%] | viability, T/C [9] [%] | viability, T/C [10] [%] | viability, T/C [12] [%] | viability, T/C [13] [%] | viability, T/C [14] [%] | viability, T/C [15] [%] | viability, T/C [16] [%] | viability, T/C [18] [%] | viability, T/C [19] [%] | viability, T/C [20] [%] | viability, T/C [21] [%] | viability, T/C [22] [%] | further results
Cn1ncnc1[C@H]1c2n[nH]c(=O)c3cc(F)cc(c23)N[C@@H]1c1ccc(F)cc1 + C=CC(=O)N1CCN(c2nc(OCC3CCCN3C)nc3c2CCN(c2cccc4cccc(C)c24)C3)CC1CC#N | > 100 | > 100 | > 100 | > 100 | > 100 | 116 | 112 | 101 | 97.4 | 101 | 107 | 105 | 98.5 | 100 | 103 | 100 | 104 | 103 | 94.8 | 96.1 | viability, T/C [11]: 90.9%; viability, T/C [17]: 100%; viability, T/C [23]: 93%; viability, T/C [24]: 101%; viability, T/C [25]: 106%; viability, T/C [26]: 94.6%; viability, T/C [27]: 88.9%; viability, T/C [28]: 95.1%; viability, T/C [29]: 99.8%; viability, T/C [30]: 62.8%; viability, T/C [31]: 68.4%; viability, T/C [32]: 61.5%; viability, T/C [33]: 47.8%; viability, T/C [34]: 50.7%; viability, T/C [35]: 62.9%
CC(=O)Nc1cccc(-n2c(=O)n(C3CC3)c(=O)c3c(Nc4ccc(I)cc4F)n(C)c(=O)c(C)c32)c1 + C=CC(=O)N1CCN(c2nc(OCC3CCCN3C)nc3c2CCN(c2cccc4cccc(C)c24)C3)CC1CC#N | 5.65 | 5.79 | 6.32 | 5.71 | 0.569 | 94.3 | 89.5 | 72.1 | 29.2 | 3.04 | 106 | 95.4 | 77.9 | 25.1 | 2.8 | 114 | 93.5 | 84.9 | 27.5 | 2.51 | viability, T/C (second compound 0.0316 µM, first compound 0.0001 µM): 103%; viability, T/C (second compound 0.1 µM, first compound 0.0001 µM): 98.1%; viability, T/C (second compound 0.316 µM, first compound 0.0001 µM): 102%; viability, T/C (second compound 1 µM, first compound 0.0001 µM): 106%; viability, T/C [24]: 109%; viability, T/C [25]: 92.6%; viability, T/C [26]: 83.4%; viability, T/C [27]: 19.1%; viability, T/C [28]: 1.86%; viability, T/C (second compound 3.16 µM, first compound 0.0001 µM): 76.9%; viability, T/C [30]: 52.7%; viability, T/C [31]: 40.3%; viability, T/C [32]: 39.5%; viability, T/C [33]: 0.5%; viability, T/C [34]: 0.93%
CCNC(=O)CC1N=C(c2ccc(Cl)cc2)c2cc(OC)ccc2-n2c(C)nnc21 (stereo not given) | – | – | – | – | – | – | – | – | – | – | – | – | – | – | – | – | – | – | – | – | viability, T/C (compound 0.0316 µM): 110% [middle of 5 runs]; viability, T/C (compound 0.1 µM): 100% [middle of 5 runs]; viability, T/C (compound 0.316 µM): 90.8% [middle of 5 runs]; viability, T/C (compound 1 µM): 88.9% [middle of 5 runs]; IC50 (curve of compound): > 10000 nM and 4980 nM
CC(C)n1nc(-c2ccc3oc(N)nc3c2)c2c(N)ncnc21 + C=CC(=O)N1CCN(c2nc(OCC3CCCN3C)nc3c2CCN(c2cccc4cccc(C)c24)C3)CC1CC#N | 15.3 | 23.2 | 15.3 | 14.1 | 2.27 | 118 | 109 | 87.6 | 63.1 | 30.1 | 113 | 115 | 90.6 | 68.1 | 45.2 | 111 | 115 | 101 | 61 | 31.6 | viability, T/C [11]: 21.1%; viability, T/C [17]: 22.3%; viability, T/C [23]: 23.6%; viability, T/C [24]: 108%; viability, T/C [25]: 118%; viability, T/C [26]: 83%; viability, T/C [27]: 58.8%; viability, T/C [28]: 34.6%; viability, T/C [29]: 23.1%; viability, T/C [30]: 86%; viability, T/C [31]: 52.7%; viability, T/C [32]: 56.7%; viability, T/C [33]: 23.9%; viability, T/C [34]: 29.2%; viability, T/C [35]: 12.6%
